Results: patent US20250051275A1, “PYRROLE DERIVATIVE OR PHARMACEUTICALLY OR SITOLOGICALLY ACCEPTABLE SALTS THEREOF, AND COMPOSITION FOR PREVENTION, AMELIORATION OR TREATMENT OF GASTROINTESTINAL DISORDERS COMPRISING SAME AS ACTIVE INGREDIENT” (HANA PHARM CO., LTD., priority 2021, published 2025)
Like-named read-outs stand apart in the source and are kept apart here.

Columns and labels:
pH of gastric juice = experiment: Pharmacodynamic profile (pH of gastric juice) in beagles after histamine; format: in vivo, beagle dogs; conditions: beagle
Experimental: (§1) A total of 18 male beagle dogs (Marshall Beagle, Beijing) with an average weight of 9 to 11 kg were obtained, acclimatized, and distributed into a total of 6 groups, 3 dogs per test group. During the entire experiment, all beagle dogs were supplied with standardized solid food and water. The breeding room was kept under controlled and monitored conditions, while maintaining a temperature of 18° C. to 26° C., a humidity of 40% to 70%, and a light-dark cycle of 12 hours-12 hours.
(§2) The test group consisted of beagle dogs that were orally administered the vehicle as the vehicle group, beagle dogs that were orally administered control drug 1 (vonoprazan) as the comparison group, and administration group was beagle dogs orally administered with Example 7.
To measure the neutralizing power of gastric acid for drug efficacy evaluation, each dose of the compound was administered to each group. Then, histamine dihydrochloride at 0.03 mg/kg was administered subcutaneously 1, 3, 6, 24, and 48 hours after compound administration. The pH of the gastric juice was measured 0, 2.5, 4.5, 7.5, 25.5, and 49.5 hours after compound administration.

[1] = tested on: human gastric cancer cells (AGS Cells); experiment: MTS assay, inhibition of proliferation of human gastric cancer cells (AGS Cells); format: cell-based; conditions: Homo sapiens, 48 hours
Experimental: To examine the effect of inhibiting the proliferation of the compounds indicated in the examples of the present invention on human gastric cancer cells (AGS Cells), MTS Assay experiments were in vitro performed. AGS cells were cultured in a 5% CO2 incubator at 37° C. by using RPMI 1640 medium containing 1% penicillin-streptomycin and 10% fetal bovine serum. The cells in culture were separated with using 0.25% Trypsin-0.02% EDTA every 3 to 4 days and subcultured.
For the experiment, the cultured cells were treated with 0.25% Trypsin-0.02% EDTA solution, the suspended cells were centrifuged at 1,200 rpm for 5 minutes, the supernatant was discarded, a culture medium was added thereto, and a cell suspension was made with the culture medium. Using a hemocytometer, 10,000 cells per well were dispensed into 96-well plates and cultured. After 24 hours, when the cells attached to the plate, the culture medium was discarded, and the cells were treated with new culture media prepared by concentration (test concentrations: 500 μm, 250 μm, 125 μm, 63 μm, 31 μm, 16 μm, 8 μm, 4 μm, and 2 μm) and cultured in a CO2 incubator for 48 hours. After treating with an MTS solution, the cells were incubated in a CO2 incubator for 1 hour, and the absorbance was measured at 490 nm by using a microplate reader device. The cell proliferation inhibition rate was expressed as IC50, which is 50% inhibition of cell proliferation, using GraphPad Prism 5.
In Table 2 below, the IC50 value is indicated as “+++” for 0 to 50 μM, “++” for 51 to 100 μM, and “+” for 101 to 400 μM.

[2] = Oral bioavailability in beagle dogs; format: in vivo; conditions: dog, plasma; for AUC(0-t) / half-life / Cmax / Tmax: mean n=3; for bioavailability: po, read-out: BA (bioavailability)
Experimental: To evaluate oral bioavailability, Example 7 was administered intravenously or orally to beagle dogs.
For the intravenous administration group, blood samples were obtained from peripheral veins 1 minute, 5 minutes, 15 minutes, 30 minutes, 1 hour, 2 hours, 4 hours, 8 hours, and 24 hours after drug administration. For the oral administration group, blood samples were obtained from peripheral veins 15 minutes, 30 minutes, 1 hour, 2 hours, 4 hours, 6 hours, 8 hours, 12 hours, and 24 hours after drug administration. Blood samples collected at different times were treated with EDTA and centrifuged (2 to 8° C., 3,200 g, 10 minutes) to separate plasma.
The amount of administered compound into the plasma sample was quantified by using LC-MS/MS. Pharmacokinetic parameters were obtained by using a non-compartmental model in Phoenix WinNonlin 6.3 software.
‘AUC0-last’ indicates the area under the time curve, ‘Cmax’ indicates the highest plasma concentration, ‘Tmax’ indicates the time to reach the highest plasma concentration, ‘T1/2’ indicates the half-life, and ‘BA’ indicates the bioavailability.

[3] = Pharmacokinetic profile in beagles, single oral dose; format: in vivo, beagle dogs; conditions: male, dog, plasma, beagle, mean n=3
Experimental: as §1, §2
Blood samples were obtained from peripheral veins at 30 minutes, 1 hour, 2.5 hours, 4.5 hours, 7.5 hours, 25.5 hours, and 49.5 hours after drug administration, respectively. Blood samples were centrifuged (2 to […], 3,200 g, 10 minutes) to obtain plasma. The amount of the administered compound into the plasma samples was quantified by using LC-MS/MS. Pharmacokinetic parameters were obtained by using a non-compartmental model in Phoenix WinNonlin 6.3 software. ‘AUC0-last’ indicates the area under the time curve, ‘Cmax’ indicates the highest plasma concentration, ‘ Tmax’ indicates the time to reach the highest plasma concentration, and ‘T1/2’ indicates the half-life.

[2H]C([2H])([2H])NCc1cc(-c2ccccc2F)n(S(=O)(=O)c2ccc(F)cc2)c1 [Example 7, N-((5-(2-fluorophenyl)-1-((4-fluorophenyl)sulfonyl)-1H-pyrrol-3-yl)methyl)methan-d3-amine]
Average pH of gastric juice (pH of gastric juice; oral 0.1 mg/kg, 0 h): 6.8
Average pH of gastric juice (pH of gastric juice; oral 0.1 mg/kg, 2.5 h): 3.3
Average pH of gastric juice (pH of gastric juice; oral 0.1 mg/kg, 4.5 h): 6.5
Average pH of gastric juice (pH of gastric juice; oral 0.1 mg/kg, 7.5 h): 6.0
Average pH of gastric juice (pH of gastric juice; oral 0.1 mg/kg, 25.5 h): 2.7
Average pH of gastric juice (pH of gastric juice; oral 0.1 mg/kg, 49.5 h): 2.4
Average pH of gastric juice (pH of gastric juice; oral 0.3 mg/kg, 0 h): 7.2
Average pH of gastric juice (pH of gastric juice; oral 0.3 mg/kg, 2.5 h): 6.7
Average pH of gastric juice (pH of gastric juice; oral 0.3 mg/kg, 4.5 h): 7.0
Average pH of gastric juice (pH of gastric juice; oral 0.3 mg/kg, 7.5 h): 6.5
Average pH of gastric juice (pH of gastric juice; oral 0.3 mg/kg, 25.5 h): 2.3
Average pH of gastric juice (pH of gastric juice; oral 0.3 mg/kg, 49.5 h): 2.8
Average pH of gastric juice (pH of gastric juice; oral 1 mg/kg, 0 h): 5.7
Average pH of gastric juice (pH of gastric juice; oral 1 mg/kg, 2.5 h): 7.2
Average pH of gastric juice (pH of gastric juice; oral 1 mg/kg, 4.5 h): 6.7
Average pH of gastric juice (pH of gastric juice; oral 1 mg/kg, 7.5 h): 6.2
Average pH of gastric juice (pH of gastric juice; oral 1 mg/kg, 25.5 h): 3.0
Average pH of gastric juice (pH of gastric juice; oral 1 mg/kg, 49.5 h): 2.3
Average pH of gastric juice (pH of gastric juice; oral 3 mg/kg, 0 h): 6.0
Average pH of gastric juice (pH of gastric juice; oral 3 mg/kg, 2.5 h): 7.3
Average pH of gastric juice (pH of gastric juice; oral 3 mg/kg, 4.5 h): 7.0
Average pH of gastric juice (pH of gastric juice; oral 3 mg/kg, 7.5 h): 6.3
Average pH of gastric juice (pH of gastric juice; oral 3 mg/kg, 25.5 h): 6.2
Average pH of gastric juice (pH of gastric juice; oral 3 mg/kg, 49.5 h): 3.0
IC50 ([1]; read-out: Proliferation inhibitory effect of gastric cancer cells (IC50)): 35.3 µM
IC50 ([1]; read-out: Proliferation inhibitory effect of gastric cancer cells (IC50, μM), class symbol): < 50 µM
AUC(0-t) ([2]; intravenous 0.2 mg/kg): 423 ng·h/mL
half-life ([2]; intravenous 0.2 mg/kg): 214 min
AUC(0-t) ([2]; oral 2 mg/kg (1 mg/ml)): 6940 ng·h/mL
Cmax ([2]; oral 2 mg/kg (1 mg/ml)): 632 ng/mL
Tmax ([2]; oral 2 mg/kg (1 mg/ml)): 1.53 h
half-life ([2]; oral 2 mg/kg (1 mg/ml)): 333 min
AUC(0-t) ([2]; oral 6 mg/kg (3 mg/ml)): 15100 ng·h/mL
Cmax ([2]; oral 6 mg/kg (3 mg/ml)): 1120 ng/mL
Tmax ([2]; oral 6 mg/kg (3 mg/ml)): 3.67 h
half-life ([2]; oral 6 mg/kg (3 mg/ml)): 449 min
AUC(0-t) ([2]; oral 20 mg/kg (10 mg/ml)): 49300 ng·h/mL
Cmax ([2]; oral 20 mg/kg (10 mg/ml)): 3350 ng/mL
Tmax ([2]; oral 20 mg/kg (10 mg/ml)): 3.33 h
half-life ([2]; oral 20 mg/kg (10 mg/ml)): 1100 min
bioavailability ([2]; 2 mg/kg, oral 2 mg/kg (1 mg/ml)): ≥ 100%
bioavailability ([2]; 6 mg/kg, oral 6 mg/kg (3 mg/ml)): ≥ 100%
bioavailability ([2]; 20 mg/kg, oral 20 mg/kg (10 mg/ml)): ≥ 100%
AUC(0-t) ([3]; oral single dose 0.1 mg/kg): 99.4 ng·h/mL
Cmax ([3]; oral single dose 0.1 mg/kg): 32.3 ng/mL
Tmax ([3]; oral single dose 0.1 mg/kg): 0.833 h
half-life ([3]; oral single dose 0.1 mg/kg): 100 min
AUC(0-t) ([3]; oral single dose 0.3 mg/kg): 808 ng·h/mL
Cmax ([3]; oral single dose 0.3 mg/kg): 165 ng/mL
Tmax ([3]; oral single dose 0.3 mg/kg): 1 h
half-life ([3]; oral single dose 0.3 mg/kg): 176 min
AUC(0-t) ([3]; oral single dose 1 mg/kg): 2890 ng·h/mL
Cmax ([3]; oral single dose 1 mg/kg): 397 ng/mL
Tmax ([3]; oral single dose 1 mg/kg): 1 h
half-life ([3]; oral single dose 1 mg/kg): 182 min
AUC(0-t) ([3]; oral single dose 3 mg/kg): 19200 ng·h/mL
Cmax ([3]; oral single dose 3 mg/kg): 1430 ng/mL
Tmax ([3]; oral single dose 3 mg/kg): 2.17 h
half-life ([3]; oral single dose 3 mg/kg): 257 min
